Data: ChEMBL document CHEMBL1641470, “New azoles with antifungal activity: Design, synthesis, and molecular docking” (2011)
In brackets after ≈: the same amount, converted by molar mass.

Columns and labels:
Type in all cases: functional
Candida albicans = test: Antifungal activity against Candida albicans ATCC Y0109 after 24 hrs by broth microdilution method
Candida parapsilosis = test: Antifungal activity against Candida parapsilosis by broth microdilution method; details: Lodderomyces parapsilosis
Fusarium = test: Antifungal activity against Fusarium by broth microdilution method
Aspergillus fumigatus = test: Antifungal activity against Aspergillus fumigatus by broth microdilution method
Cryptococcus neoformans = test: Antifungal activity against Cryptococcus neoformans ATCC BLS108 after 72 hrs by broth microdilution method
Nannizzia gypsea = test: Antifungal activity against Microsporum gypseum by broth microdilution method
Trichophyton rubrum = test: Antifungal activity against Trichophyton rubrum by broth microdilution method
Candida tropicalis = test: Antifungal activity against Candida tropicalis by broth microdilution method

Compound | MIC80 (Candida albicans) [µg/mL] | MIC80 (Candida parapsilosis) [µg/mL] | MIC80 (Fusarium) [µg/mL] | MIC80 (Aspergillus fumigatus) [µg/mL] | MIC80 (Cryptococcus neoformans) [µg/mL] | MIC80 (Nannizzia gypsea) [µg/mL] | MIC80 (Trichophyton rubrum) [µg/mL] | MIC80 (Candida tropicalis) [µg/mL]
OC(Cn1cncn1)(Cn1cncn1)c1ccc(F)cc1F [FLUCONAZOLE] | 4 (≈ 13.1 µM) | 1 (≈ 3.27 µM) | 16 (≈ 52.2 µM) | 64 (≈ 209 µM) | 1 (≈ 3.27 µM) | 0.25 (≈ 0.816 µM) | 0.25 (≈ 0.816 µM) | 1 (≈ 3.27 µM)
O=C(/C=C/c1ccc(Cl)c(Cl)c1)Nc1ccc(N2CCN(CC(O)(Cn3cncn3)c3ccc(F)cc3F)CC2)cc1 (stereo not drawn) | 0.0156 (≈ 0.0254 µM) | 0.0625 (≈ 0.102 µM) | 0.25 (≈ 0.408 µM) | 4 (≈ 6.52 µM) | 0.25 (≈ 0.408 µM) | 0.25 (≈ 0.408 µM) | 0.0156 (≈ 0.0254 µM) | 0.0625 (≈ 0.102 µM)
COc1ccc(/C=C/C(=O)Nc2ccc(N3CCN(CC(O)(Cn4cncn4)c4ccc(F)cc4F)CC3)cc2)cc1OC (stereo not drawn) | 0.0156 (≈ 0.0258 µM) | 0.0625 (≈ 0.103 µM) | 1 (≈ 1.65 µM) | 4 (≈ 6.62 µM) | 0.25 (≈ 0.413 µM) | 0.25 (≈ 0.413 µM) | 0.25 (≈ 0.413 µM) | 0.0625 (≈ 0.103 µM)
O=C(/C=C/c1ccc(F)cc1)Nc1ccc(N2CCN(CC(O)(Cn3cncn3)c3ccc(F)cc3F)CC2)c(F)c1 (stereo not drawn) | 0.25 (≈ 0.431 µM) | 0.0156 (≈ 0.0269 µM) | 0.25 (≈ 0.431 µM) | 1 (≈ 1.72 µM) | 0.25 (≈ 0.431 µM) | 0.25 (≈ 0.431 µM) | 0.0625 (≈ 0.108 µM) | 0.0156 (≈ 0.0269 µM)
O=C(/C=C/c1ccc(Br)cc1)Nc1ccc(N2CCN(CC(O)(Cn3cncn3)c3ccc(F)cc3F)CC2)c(F)c1 (stereo not drawn) | 0.25 (≈ 0.39 µM) | 0.0625 (≈ 0.0974 µM) | 1 (≈ 1.56 µM) | 1 (≈ 1.56 µM) | 0.0156 (≈ 0.0243 µM) | 0.0625 (≈ 0.0974 µM) | 0.0625 (≈ 0.0974 µM) | 0.0156 (≈ 0.0243 µM)
O=C(/C=C/c1cccc(F)c1)Nc1ccc(N2CCN(CC(O)(Cn3cncn3)c3ccc(F)cc3F)CC2)c(F)c1 (stereo not drawn) | 0.25 (≈ 0.431 µM) | 0.0156 (≈ 0.0269 µM) | 0.25 (≈ 0.431 µM) | 4 (≈ 6.89 µM) | 0.25 (≈ 0.431 µM) | 0.25 (≈ 0.431 µM) | 0.25 (≈ 0.431 µM) | 0.25 (≈ 0.431 µM)
O=C(/C=C/c1ccccc1[N+](=O)[O-])Nc1ccc(N2CCN(CC(O)(Cn3cncn3)c3ccc(F)cc3F)CC2)c(F)c1 (stereo not drawn) | 0.25 (≈ 0.411 µM) | 1 (≈ 1.65 µM) | 16 (≈ 26.3 µM) | 64 (≈ 105 µM) | 1 (≈ 1.65 µM) | 1 (≈ 1.65 µM) | 0.25 (≈ 0.411 µM) | 1 (≈ 1.65 µM)
O=C(/C=C/c1ccccc1)Nc1ccc(N2CCN(CC(O)(Cn3cncn3)c3ccc(F)cc3F)CC2)cc1 (stereo not drawn) | 0.0156 (≈ 0.0286 µM) | 0.0625 (≈ 0.115 µM) | 0.0625 (≈ 0.115 µM) | 16 (≈ 29.4 µM) | 0.25 (≈ 0.459 µM) | 0.25 (≈ 0.459 µM) | 0.0039 (≈ 0.00716 µM) | 0.0625 (≈ 0.115 µM)
COc1ccc(OC)c(/C=C/C(=O)Nc2ccc(N3CCN(CC(O)(Cn4cncn4)c4ccc(F)cc4F)CC3)c(F)c2)c1 (stereo not drawn) | 0.0625 (≈ 0.1 µM) | 1 (≈ 1.61 µM) | 64 (≈ 103 µM) | > 64 | 1 (≈ 1.61 µM) | 1 (≈ 1.61 µM) | 0.0625 (≈ 0.1 µM) | 0.25 (≈ 0.402 µM)
Cc1ccc(/C=C/C(=O)Nc2ccc(N3CCN(CC(O)(Cn4cncn4)c4ccc(F)cc4F)CC3)c(F)c2)cc1 (stereo not drawn) | 0.25 (≈ 0.434 µM) | 1 (≈ 1.73 µM) | 1 (≈ 1.73 µM) | 1 (≈ 1.73 µM) | 4 (≈ 6.94 µM) | 0.25 (≈ 0.434 µM) | 0.25 (≈ 0.434 µM) | 0.0625 (≈ 0.108 µM)
O=C(/C=C/c1ccc(F)cc1)Nc1ccc(N2CCN(CC(O)(Cn3cncn3)c3ccc(F)cc3F)CC2)cc1 (stereo not drawn) | 0.0625 (≈ 0.111 µM) | 0.25 (≈ 0.444 µM) | 1 (≈ 1.78 µM) | 0.0625 (≈ 0.111 µM) | 0.25 (≈ 0.444 µM) | 0.0625 (≈ 0.111 µM) | 0.0039 (≈ 0.00693 µM) | 0.25 (≈ 0.444 µM)
O=C(/C=C/c1ccc([N+](=O)[O-])cc1)Nc1ccc(N2CCN(CC(O)(Cn3cncn3)c3ccc(F)cc3F)CC2)cc1 (stereo not drawn) | 0.0625 (≈ 0.106 µM) | 1 (≈ 1.7 µM) | 16 (≈ 27.1 µM) | 4 (≈ 6.78 µM) | 1 (≈ 1.7 µM) | 0.0625 (≈ 0.106 µM) | 0.0156 (≈ 0.0265 µM) | 0.25 (≈ 0.424 µM)
O=C(/C=C/c1ccccc1F)Nc1ccc(N2CCN(CC(O)(Cn3cncn3)c3ccc(F)cc3F)CC2)c(F)c1 (stereo not drawn) | 0.25 (≈ 0.431 µM) | 0.0625 (≈ 0.108 µM) | 1 (≈ 1.72 µM) | 4 (≈ 6.89 µM) | 0.25 (≈ 0.431 µM) | 0.25 (≈ 0.431 µM) | 0.0625 (≈ 0.108 µM) | 0.0625 (≈ 0.108 µM)
O=C(/C=C/c1cccc(Br)c1)Nc1ccc(N2CCN(CC(O)(Cn3cncn3)c3ccc(F)cc3F)CC2)cc1 (stereo not drawn) | 0.0625 (≈ 0.1 µM) | 0.25 (≈ 0.401 µM) | 1 (≈ 1.6 µM) | 16 (≈ 25.7 µM) | 1 (≈ 1.6 µM) | 1 (≈ 1.6 µM) | 0.0625 (≈ 0.1 µM) | 0.25 (≈ 0.401 µM)
O=C(/C=C/c1ccccc1Cl)Nc1ccc(N2CCN(CC(O)(Cn3cncn3)c3ccc(F)cc3F)CC2)cc1 (stereo not drawn) | 0.0039 (≈ 0.00674 µM) | 0.25 (≈ 0.432 µM) | 1 (≈ 1.73 µM) | 4 (≈ 6.91 µM) | 0.25 (≈ 0.432 µM) | 0.0156 (≈ 0.0269 µM) | 0.0156 (≈ 0.0269 µM) | 0.0625 (≈ 0.108 µM)
O=C(/C=C/c1cccc(F)c1)Nc1ccc(N2CCN(CC(O)(Cn3cncn3)c3ccc(F)cc3F)CC2)cc1 (stereo not drawn) | 0.0156 (≈ 0.0277 µM) | 0.25 (≈ 0.444 µM) | 1 (≈ 1.78 µM) | 4 (≈ 7.11 µM) | 0.25 (≈ 0.444 µM) | 0.0156 (≈ 0.0277 µM) | 0.25 (≈ 0.444 µM) | 0.25 (≈ 0.444 µM)
